Where a name gives a salt, the structure may show the parent alone.
What was measured:
[1] = tested on: RF strain of HIV (CEM-SS cells); experiment: Cell Culture Anti-HIV Activity (cell viability, formazan); type: cell-based; settings: Human immunodeficiency virus 1, CEM-SS, 144 h, CEM-SS cells, RF strain of HIV, multiplicity of infection 0.04, 6 days at 37° C., 450 nm; read-out: HIV (CEM Cells) IC50
Protocol: The antiviral activity of aminediol inhibitors of the present invention was evaluated by a microculture method which determines the increase in cell viability of an infected culture when a drug is added. The assay depends on the metabolic reduction of tetrazolium reagent by viable cells to yield a soluble colored formazan product.
The assay was performed as follows: suspensions of CEM-SS cells (5000/well) were infected with the RF strain of HIV at a multiplicity of infection at 0.04 in a 96-well plate. The compounds of the present invention listed in the following Table 1, serially diluted in half-log fashion, were added to the infected and uninfected control cells. Untreated (infected and uninfected) cells were included as controls. Following incubation for 6 days at 37° C., viable cells in each well were quantitated by the visible light absorbance at 450 nm.
The IC50 was calculated as the concentration of drug that increased the formazan production in virally infected cells to 50% of that produced by uninfected cells in the absence of drug.

HIV protease = molecular target: T1, HIV protease (Human immunodeficiency virus type 1 group M subtype B, UniProt P04585); experiment: HIV Protease Assay; type: biochemical; settings: pH 5.5, 10 μM inhibitor, 4% DMSO, 450 μM substrate, pH 5.5, 30 minutes at 37° C., RP-HPLC; read-out: HIV Protease % Inhibition at 10 μM
T1 construct: and purified protease
Summary of the method: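 At a single final concentration of 10 μM (4% DMSO), inhibitors were added to a 30-minute, 37° C reaction of purified enzyme with 450 μM H2N-Val-Ser-Gln-Asn-(β-naphthyl-alanine)-Pro-Val-Ile-OH at pH 5.5 (sodium acetate, BSA). Hydrolysis was quantified by reverse-phase HPLC with 220 nm detection after acid quench.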

SMILES	IC50 [1]	inhibition at 10 µM (HIV protease)
CC(C)[C@H](NC(=O)OCc1ccccc1)C(=O)N[C@@H](Cc1ccccc1)[C@H](O)CNC[C@@H](O)[C@H](Cc1ccccc1)NC(=O)[C@@H](NC(=O)OCc1ccccc1)C(C)C [Compound 42, [1S-(1R*,2S*)]-N,N'-[Iminobis[2-hydroxy-1-(phenylmethyl)-3,1-proanediyl]bis[N^2-[(phenylmethoxy)carbonyl]-L-valinamide]]	600 nM	100%
CC[C@H](C)[C@H](NC(=O)OC(C)(C)C)[C@H](O)CNC[C@@H](O)[C@@H](NC(=O)OC(C)(C)C)[C@@H](C)CC [Compound 13, [R-(R*,S*)]-[Iminobis[2-hydroxy-1-(1-methylpropyl)-3,1-proyanediyl]]biscarbamic acid, 1,1-dimethylethyl ester]	5300 nM	45%
CC(C)(C)OC(=O)N[C@@H](Cc1ccccc1)[C@H](O)CNC[C@@H](O)[C@H](Cc1ccccc1)NC(=O)OC(C)(C)CC#CCc1ccccc1 [Compound 167, [1S-(1R*,2S*))]-[Iminobis[2-hydroxy-1-(phenylmethyl)-3,1-propanediyl]biscarbamic acid, 1,1-dimethylethyl 1,1]-dimethyl-5-phenyl-3-pentynyl ester]	> 1800 nM	97%
CC(C)(CO)OC(=O)N[C@@H](Cc1ccccc1)[C@H](O)CNC[C@@H](O)[C@H](Cc1ccccc1)NC(=O)OC(C)(C)CO [Compound 165, [R-(R*,S*)]-[Iminobis[2-hydroxy-1-(phenylmethyl)-3,1-propanediyl)biscarbamic acid, bis(2-hydroxy-1,1-dimethylethyl) ester]	620 nM	100%
CC(C)(C)OC(=O)N[C@@H](Cc1ccccc1)[C@H](O)CNC[C@@H](O)[C@H](Cc1ccc(OCCCc2nc3ccccc3o2)cc1)NC(=O)OC(C)(C)C [Compound 244, [1S-[1R*,2S*(2S*,3R*)]]-[3-[[3-[[(1,1-Dimethylethoxy)carbonyl]amino]-2-hydroxy-4-[4-[3-[(2-benzoxazolyl)-propoxy]phenyl]butyl]amino]-2-hydroxy-1-(phenylmethyl)propyl]carbamic acid, 1,1-dimethylethyl ester]	1500 nM	100%
CC(C)(C)OC(=O)N[C@@H](Cc1ccccc1)[C@H](O)CNC[C@@H](O)[C@H](Cc1ccccc1)NC(=O)OC(C)(C)C#CCCc1ccccc1 [Compound 155, [1S-(1R*,2S*)]-[Iminobis[2-hydroxy-1-(phenylmethyl)-3,1-propanediyl]biscarbamic acid, 1,1-dimethylethyl 1,1-dimethyl-5-phenyl-2-pentynyl ester]	> 200 nM	95%
CC(C)[C@H](NC(=O)OCc1nc2ccccc2c(=O)[nH]1)C(=O)N[C@@H](Cc1ccccc1)[C@H](O)CNC[C@@H](O)[C@H](Cc1ccccc1)NC(=O)OC(C)(C)C (relative stereo) [Compound 222, [1R*,2S*(2S*,3R*)]-N^2-[[(3,4-Dyhydro-4-oxo-2-quinazolinyl)methoxy]carbonyl]-N-[3-[[3-[[(1,1-dimethylethoxy)carbonyl]amino]-2-hydroxy-4-phenylbutyl]amino]-2-hydroxy-1-(phenylmethyl)propyl]-L-valinamide]	380 nM	98%
CC(C)[C@H](NC(=O)[C@@H](N)Cc1ccccc1)C(=O)N[C@@H](Cc1ccccc1)[C@H](O)CNC[C@@H](O)[C@H](Cc1ccccc1)NC(=O)OC(C)(C)C [Compound 84, [S-[1R*,2S*(2S*,3R*)]-N-[3-[[3-[[(1,1-Dimethylethoxy)carbonyl]amino]-2-hydroxy-4-phenylbutyl]amino]-2-hydroxy-1-(phenylmethyl)propyl)-L-valyl]-L-phenylalanamide, fumarate (2:3) salt]	1200 nM	99%
CC(C)[C@H](NC(=O)C(N)Cc1ccccc1O)C(=O)N[C@@H](Cc1ccccc1)[C@H](O)CNC[C@@H](O)[C@H](Cc1ccccc1)NC(=O)OC(C)(C)C (relative stereo) [Compound 211, [1R*,2S*(2S*,3R*)]-N-[3-[[3-[[(1,1-Dimethylethoxy)carbonyl]amino]-2-hydroxy-4-phenylbutyl]amino]-2-hydroxy-1-(phenylmethyl)propyl]-N^2-(2-hydroxyoxyphenylalanyl)-L-valinamide, fumarate (2:3) salt]	900 nM	99%
CNC(=O)C(C(=O)N[C@@H](Cc1ccccc1)[C@H](O)CNC[C@@H](O)[C@H](Cc1ccccc1)NC(=O)OC(C)(C)C)C(C)(C)C (stereo partly drawn) [Compound 354, [1S-[1R*,2S*(2S*,3R*)]]-[3-[[3-[[3,3-Dimethyl-2-[(methylamino)carbonyl]-1-oxobutyl]amino]-2-hydroxy-4-phenylbutyl]amino]-2-hydroxy-1-(phenylmethyl)propyl]carbamic acid, 1,1-dimethylethyl ester]	120 nM	99%
CC(C)[C@H](NC(=O)OC(C)(C)C)C(=O)N[C@@H](Cc1ccccc1)[C@H](O)CNC[C@@H](O)[C@H](Cc1ccccc1)NC(=O)OC(C)(C)C [Compound 58, [S-[1R*,2S*(2S*,3R*)]-N-[3-[[3-[[(1,1-Dimethylethoxy)carbonyl]amino]-2-hydroxy-4-phenylbutyl]amino]-2-hydroxy-1-(phenylmethyl)-propyl-N^2-[(1,1-dimethylethoxy)-carbonyl]-L-valinamide]	1000 nM	57%
CC(C)[C@H](NC(=O)OCc1ccccc1)C(=O)N[C@@H](Cc1ccccc1)[C@H](O)CNC[C@@H](O)[C@H](Cc1ccccc1)N(C)C(=O)OC(C)(C)C [Compound 141, [S-[1R*,2S*(2S*,3R*)]-N-[3-[[3-[[(1,1-Dimethylethoxy)carbonyl]methylamino]-2-hydroxy-4-phenylbutyl]amino]-2-hydroxy-1-(phenylmethyl)propyl]-N^2-[(phenylmethoxy)-carbonyl]-L-valinamide]]	> 2300 nM	77%
CC(C)(C)OC(=O)N[C@@H](Cc1ccccc1)[C@H](O)CNC[C@@H](O)[C@H](Cc1ccccc1)NC(=O)[C@H](O)C(C)(C)C [Compound 334, [1S-[1R*,2S*[2S*,3R*(S*)]]]-[3-[[3-[(2-Hydroxy-3,3-dimethyl-1-oxobutyl)amino]-2-hydroxy-4-phenylbutyl]amino]-2-hydroxy-1-(phenylmethyl)propyl]carbamic acid, 1,1-dimethylethyl ester]	50 nM	99%
CC(C)(C)OC(=O)N[C@@H](Cc1ccccc1)[C@H](O)CNC[C@@H](O)[C@H](Cc1ccccc1)NC(=O)OC1(C)CCCC1 [Compound 159, [1S-(1R*,2S*)]-[Iminobis[2-hydroxy-1-(phenylmethyl)-3,1-propanediyl]]bis-[carbamic acid], 1,1-dimethylethyl 1-methyl-cyclopentyl ester]	1300 nM	100%
CC(C)(C)OC(=O)N[C@@H](Cc1ccccc1)[C@H](O)CN[C@H](Cc1ccccc1)[C@@H](O)CNC(=O)OCc1ccccc1 [Compound 185, [2S-[2R*,3S*(2S*,3R*)]]-[3-[[3-[[(1,1-Dimethylethoxy)carbonyl]amino-2-hydroxy-4-phenylbutyl]amino-2-hydroxy-4-phenylbutyl]carbamnic acid, phenylmethyl ester]	–	5%

From patent US5760036A, “Aminediol protease inhibitors” (E. R. Squibb & Sons, Inc., priority 1995, dated 1998)
